In publication PMC12817894, “Two solutions for efficient light-harvesting in phototrophic Gemmatimonadota” (mSystems, 2025):

Target: T1, RC (reaction center) of the RC-dLH complex, L and M subunits (Gemmatimonas groenlandica, UniProt A0A6M4ILR2+A0A6M4IPC7)
T1 construct: gene HKW67_08800; native reaction center within the RC-dLH complex purified from Gem. groenlandica cells, DDM-solubilized; RC-U not detected; with Photosynthetic reaction center cytochrome c subunit; Photosynthetic reaction center H subunit, transmembrane part; Photosynthetic reaction center H subunit, cytoplasmic part; Reaction center subunit S
Assay: cryo-EM structure ([…] Å)
Type: binding
Conditions: modeled ligand; placement in RC L/M from known biology

T1 sequence (A0A6M4IPC7 1-274): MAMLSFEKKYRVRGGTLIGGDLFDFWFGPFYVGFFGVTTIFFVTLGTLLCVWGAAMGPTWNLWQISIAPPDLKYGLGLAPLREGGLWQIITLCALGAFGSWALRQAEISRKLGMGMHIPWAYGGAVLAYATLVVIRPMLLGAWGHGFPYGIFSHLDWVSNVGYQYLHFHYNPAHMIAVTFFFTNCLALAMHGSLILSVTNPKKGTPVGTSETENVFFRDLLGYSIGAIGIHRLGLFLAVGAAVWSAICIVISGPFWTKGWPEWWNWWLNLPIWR
T1 sequence (A0A6M4ILR2 1-392): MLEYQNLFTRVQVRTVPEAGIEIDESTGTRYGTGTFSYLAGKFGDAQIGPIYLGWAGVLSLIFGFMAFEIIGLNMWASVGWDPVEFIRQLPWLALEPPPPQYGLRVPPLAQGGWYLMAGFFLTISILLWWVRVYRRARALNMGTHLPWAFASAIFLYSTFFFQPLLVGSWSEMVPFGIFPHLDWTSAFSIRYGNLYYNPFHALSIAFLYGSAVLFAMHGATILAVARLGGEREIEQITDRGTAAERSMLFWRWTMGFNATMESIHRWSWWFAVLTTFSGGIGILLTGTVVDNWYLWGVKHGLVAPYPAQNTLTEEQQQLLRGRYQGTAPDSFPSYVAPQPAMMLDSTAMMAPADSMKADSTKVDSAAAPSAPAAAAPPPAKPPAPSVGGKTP

## CC[C@H]1c2cc3[nH]c4c(c3C)C(=O)[C@H](C(=O)OC)c4c3nc(cc4[nH]c(cc(n2)[C@@H]1C)c(C(C)=O)c4C)[C@@H](C)[C@@H]3CCC(=O)OC/C=C(\C)CCC[C@H](C)CCC[C@H](C)CCCC(C)C [bacteriopheophytin]
  cryo-EM structure (2.3 Å): bacteriochlorophyll, bacteriopheophytin, gemmatoxanthin, dodecyl-maltoside, phosphoethanolamine, heme, water, cardiolipin, menaquinone, and spirilloxanthin
